Tests used:
[1] = tested on: K562/vcr; assay: Reversal of drug resistance, MTT assay, 48 h; format: cell-based; settings: for increase of sensitivity of K562/vcr to doxorubicin: FIG. 1
Experimental: To illustrate a method for reversal of drug resistance by application of Schisandrin B, cell lines K562/adr, K562/vcr (X. […] H. […] Cells were cultured in RPMI-1640 medium containing 10% fetal calf serum. […] The logarithmic growing cells were seeded into a 96 well plate (20,000 cells/well). Specific anticancer drugs (set forth in Table 1) and Schisandrin B in combination were added into the wells containing the select cell lines. […] Cell viability was assessed by MTT assays as described in X.

[2] = tested on: human epidermoid carcinoma MDR cell line KBV200; assay: Reversal of drug resistance of KBV200, MTT assay, 72 h; format: cell-based
Experimental: (§1) In this embodiment, the IC50 of anticancer drugs in the presence or absence of Schisandrin B toward MDR cells was determined.
(§2) MTT assays were carried out in triplicate against human leukemia MDR cell line K562/adr and human epidermoid carcinoma MDR cell line KBV200. MTT assays as described previously (X. Hu, et al., Chemotherapy 41:296-305 (1995)) were used to determine the cytotoxicity of each anticancer drug in the presence or absence of Schisandrin B or verapmil.
Cells were treated with specific anticancer drugs as set forth therein. […] “SchB” represents cells treated with anticancer drugs in the presence of Schisandrin B (10 μg/ml).

[3] = tested on: K562/adr; assay: Reversal of resistance to doxorubicin (FIG. 1); format: cell-based, human; settings: in the presence of Schisandrin B
Experimental: To illustrate a method for reversal of drug resistance by application of Schisandrin B, cell lines K562/adr, K562/vcr (X. Hu et al., Chemotherapy 41:296-305 (1995)), and KBv200 (X. H. Zhang et al., Yao Xue Xue Bao 29:246-251 (1994)) were selected for use because these particular cell lines are characteristic of overexpression of P-glycoprotein. Cells were cultured in RPMI-1640 medium containing 10% fetal calf serum. The test compound Schisandrin B was dissolved in dimethyl sulfoxide (DMSO) (10 mg/ml as stock). The logarithmic growing cells were seeded into a 96 well plate (20,000 cells/well). Specific anticancer drugs (set forth in Table 1) and Schisandrin B in combination were added into the wells containing the select cell lines. Controls for each anticancer drug type without Schisandrin B were also seeded into the 96 well plate. […] Cell viability was assessed by MTT assays as described in X. Hu et al., Chemotherapy 41:296-305 (1995).

[4] = tested on: K562 cells; assay: Cytotoxicity of Schisandrin B, MTT assay, 48 h; format: cell-based; settings: 10 and 20 μg/ml, FIG. 2
Experimental: (§3) To illustrate the cytotoxicity of Schisandrin B according to the present disclosure, cell lines selected for use include cancer cell lines K562, K562/Adr, K562/vcr; primary cultured cells, including human peripheral blood mononuclear cells (PBMC) and human fibroblast cells; noncancer cell lines, including human bone marrow stromal cell D6p4 and human liver cell HL-7702. Cells were cultured in RPMI-1640 medium containing 10% fetal calf serum. The logarithmic growing cells were seeded into a 96 well plate (20,000 cells/well).

[5] = tested on: MDR cells (K562/Adr, K562/vcr); assay: Cytotoxicity of Schisandrin B, MTT assay, 48 h; format: cell-based; settings: 10 and 20 μg/ml, FIG. 2
Experimental: as §3

[6] = tested on: normal human cells (PBMC, fibroblast cells, bone marrow stromal cell D6p4, liver cell HL-7702); assay: Cytotoxicity of Schisandrin B, MTT assay, 48 h; format: cell-based; settings: 10 and 20 μg/ml, FIG. 2
Experimental: as §3

[7] = target: T1, P-glycoprotein (Homo sapiens, UniProt P08183); assay: Intracellular doxorubicin accumulation, flow cytometry; format: cell-based; settings: doxorubicin 5 μg/ml, Schisandrin B 10 μg/ml, 60-120 minutes, FIG. 3
T1 construct: The cell line selected was MDR cancer cell K562/adr and its parental drug sensitive cell K562; endogenous in cells; host or cells: K562/adr (doxorubicin-selected human leukemia MDR cell line)
T1 sequence (P08183 whole entry): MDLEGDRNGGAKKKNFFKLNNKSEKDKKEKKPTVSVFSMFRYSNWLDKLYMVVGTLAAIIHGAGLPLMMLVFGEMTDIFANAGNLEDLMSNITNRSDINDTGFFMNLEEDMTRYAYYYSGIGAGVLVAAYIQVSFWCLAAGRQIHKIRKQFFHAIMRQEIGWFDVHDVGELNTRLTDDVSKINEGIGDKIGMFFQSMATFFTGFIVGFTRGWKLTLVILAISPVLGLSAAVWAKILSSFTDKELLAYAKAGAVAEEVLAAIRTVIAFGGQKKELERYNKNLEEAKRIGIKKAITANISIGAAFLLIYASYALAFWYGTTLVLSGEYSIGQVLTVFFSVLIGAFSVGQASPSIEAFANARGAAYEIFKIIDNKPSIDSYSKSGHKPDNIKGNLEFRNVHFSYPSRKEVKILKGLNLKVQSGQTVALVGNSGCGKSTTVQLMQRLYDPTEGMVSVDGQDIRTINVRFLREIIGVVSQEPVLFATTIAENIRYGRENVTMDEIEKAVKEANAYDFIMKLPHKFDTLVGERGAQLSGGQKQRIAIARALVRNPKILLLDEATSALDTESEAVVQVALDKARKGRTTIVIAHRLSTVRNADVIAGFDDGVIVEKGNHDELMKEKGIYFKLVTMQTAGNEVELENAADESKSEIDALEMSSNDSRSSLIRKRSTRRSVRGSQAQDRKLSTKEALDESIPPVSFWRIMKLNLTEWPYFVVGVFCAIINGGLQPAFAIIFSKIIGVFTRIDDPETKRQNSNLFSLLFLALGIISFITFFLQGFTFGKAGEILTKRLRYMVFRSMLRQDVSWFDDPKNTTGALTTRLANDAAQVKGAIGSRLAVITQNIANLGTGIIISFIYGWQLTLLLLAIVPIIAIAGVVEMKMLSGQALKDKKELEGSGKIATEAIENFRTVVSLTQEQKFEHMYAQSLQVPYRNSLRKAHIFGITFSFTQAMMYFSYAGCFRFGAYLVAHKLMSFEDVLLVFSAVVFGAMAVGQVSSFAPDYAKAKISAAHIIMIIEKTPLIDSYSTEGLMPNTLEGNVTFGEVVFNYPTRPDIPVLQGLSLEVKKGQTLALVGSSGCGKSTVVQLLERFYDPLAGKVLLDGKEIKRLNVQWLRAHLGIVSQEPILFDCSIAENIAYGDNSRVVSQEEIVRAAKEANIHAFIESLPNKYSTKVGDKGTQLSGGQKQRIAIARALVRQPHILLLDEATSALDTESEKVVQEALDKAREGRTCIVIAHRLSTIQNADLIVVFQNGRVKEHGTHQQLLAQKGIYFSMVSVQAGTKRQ
Experimental: The cell line selected was MDR cancer cell K562/adr and its parental drug sensitive cell K562. Cells were cultured in RPMI-1640 medium containing 10% fetal calf serum in cell-culture flasks.

[8] = target: T1, P-glycoprotein; assay: Daunorubicin accumulation, flow cytometry; format: cell-based; settings: daunorubicin 2 μg/ml, Schisandrin B 10 μg/ml, FIG. 5
Experimental: (§4) P-glycoprotein functions as a drug pump that unilaterally pumps the anticancer drugs out of MDR cancer cells. Inhibition of P-glycoprotein results in an increase of the intracellular drug concentration within cancer cells. The inhibition of P-glycoprotein is assessed by analyzing the anticancer drug concentration within the test cells in the presence or absence of Schisandrin B. […] Cells were collected at intervals of 15, 30, 60, 90, 120, and 160 minutes after incubation.

[9] = target: T1, P-glycoprotein; assay: Rh-123 accumulation, flow cytometry; format: cell-based; settings: Rh-123 2 μg/ml, Schisandrin B 10 μg/ml, FIG. 6
Experimental: as §4, with “90,” for “90, 120,”, “120” for “160”, “incubation. […] At least 50,000 cells were analyzed for each sample.” for “incubation.”

[10] = tested on: KBV200 cells; assay: Intracellular distribution of daunorubicin and Rh-123, fluorescent microscope; format: cell-based, human; settings: KBV200, Schisandrin B 5 and 10 μg/ml, 1 hour, FIGS. 10 and 11
Experimental: To illustrate the effects of Schisandrin B on the intracellular distribution in MDR cancer cells, MDR cell KBV200 and its parental drug sensitive cell line KB were selected for use. […] The respective cultures were incubated at 37° C. for 1 hour, washed with ice-cold PBS, and the cells were observed under fluorescent microscope.

[11] = target: T1, P-glycoprotein; assay: [3H]Azidopine photoaffinity labeling of P-glycoprotein; format: binding; settings: KBV200 cytoplasmic membranes, 1.0 μM azidopine, FIG. 14
Excerpt: To illustrate that Schisandrin B physically interacts with P-glycoprotein according to the present disclosure, [^3H]Azidopine Photoaffinity Labeling of P-glycoportein in the presence or absence of Schisandrin B was used. [^3H]Azidopine is a chemical having unique properties that enable it to interact with P-glycoprotein. If Schisandrin B is also able to interact with P-glycoprotein, the binding of P-glycoprotein with [^3H]Azidopine would be reduced in the presence of Schisandrin B.
The cytoplasmic membranes (enriched with P-glycoprotein) of MDR cell KBV200 were prepared according to the methods as described in May GL, et al., Int. J. Cancer 42:728-733(1988) and Hyafil F, et al., Cancer Res. 53:4595-4602(1993). Membranes were incubated with Schisandrin B for 40 minutes in the dark, followed by 1 hour incubation with 1.0 μM [H]azidopine. After UV irradiation for 2 minutes, the photolabeled membranes were subjected to SDS-PAGE on a 7.5% gel, followed by fluorography.

[12] = tested on: KBV200-implanted tumor; assay: In vivo reversal of drug resistance, KBV200-implanted tumor; parameters: species or system Balb/c nude mice; settings: for MST / T/C: Balb/c nude mice bearing KBV200-implanted tumor; for MST: doxorubicin 5 mg/kg i.v., Schisandrin B 50 mg/kg gastric intubation; for T/C: survival period in the test group / control group x 100
Experimental: Thirty nine Balb/c nu/nu female mice were inoculated subcutaneously with KBV200 cells (5×10^6 KBV200 cells/each mouse) on day 0. […] Mean body weights were recorded daily. All mice were observed once per day (or more) for mortality and signs of ill health (i.e., weight loss, change in appetite, or behavioral changes). Therapeutic comparisons were made between control and treatment groups by determining the tumor size. Tumor size was monitored approximately every other day by caliper measurements and calculated according to the formula [Tumor weight=(length×width^2)÷2]. The median survival times (MST) and the percent increase in life span (% ILS) were calculated as: % ILS=[(MSTtreatment/MSTcontrol)−1]×100.
“MST” represents median survival time. The survival rate (T/C %) was calculated by following equation: T/C(%)=[Average survival period in the test group/average survival period in the control group]×100. *P<0.05 compared to saline, vehicle, or Schisandrin B alone.

[13] = tested on: human leukemia MDR cell line K562/adr; assay: Reversal of drug resistance of K562/adr, MTT assay, 72 h; format: cell-based; settings: K562/adr
Experimental: as §1, §2
Cells were treated with specific anticancer drugs as set forth therein. “Ctrl” represents control cells treated with anticancer drugs in the absence of Schisandrin B or verapamil. “SchB” represents cells treated with anticancer drugs in the presence of Schisandrin B (10 μg/ml).

[14] = tested on: KBV200; assay: Apoptosis induced by doxorubicin, Hoechst 33342/propidium iodide staining; format: cell-based, human; settings: KBV200, A5 + S10: doxorubicin 5 μg/ml and Schisandrin B 10 μg/ml, 24 hours
Excerpt: (§5) Cells were collected and stained with fluorescent dyes Hoechst 33342 and propidium iodide. Hoechst 33342 stains the nuclei of cells with the color blue, and propidium iodide exclusively stains dead cells with the color of red. Accordingly, while Hoechst 33342 only stained the living cells blue, the dead cells were stained by both dyes with the colors of yellow, orange or red. The percentage of dead cells was counted under fluorescent microscope.

[15] = tested on: KB; assay: as above; format: cell-based
Excerpt: as §5

[16] = tested on: KBV200; assay: Cell cycle distribution and hypodiploid cells, propidium iodide flow cytometry; format: cell-based, human
Experimental: The test cells were also analyzed by flow cytometry after being subjected to propidium iodide staining.

[17] = tested on: KBV200 cells; assay: DNA fragmentation, agarose electrophoresis; format: cell-based, human; settings: FIG. 13
Excerpt: The DNA of above cells was also extracted and subjected to agarose electrophoresis.

[18] = KBV200, A1: doxorubicin 1 μg/ml
[19] = KBV200, A5: doxorubicin 5 μg/ml
[20] = KBV200, doxorubicin 1 μg/ml and Schisandrin B 10 μg/ml
[21] = KBV200, doxorubicin 5 μg/ml and Schisandrin B 10 μg/ml

COc1cc2c(c(OC)c1OC)-c1c(cc3c(c1OC)OCO3)C[C@@H](C)[C@@H](C)C2 [Schisandrin B]
increase of sensitivity of K562/vcr to doxorubicin ([1]; Schisandrin B 1 μg/ml): about 5 folds
increase of sensitivity of K562/vcr to doxorubicin ([1]; Schisandrin B 10 μg/ml): ~12 folds
increase of sensitivity of K562/vcr to doxorubicin ([1]; Schisandrin B 20 μg/ml): ~18 folds
potency in reversing vincristine resistance of KBV200 relative to verapamil ([2]; Schisandrin B versus verapamil): about 5 folds
sensitivity of K562/adr to doxorubicin [3]: greatly increased the sensitivity
cytotoxicity toward K562 cells [4]: does demonstrate cytotoxicity
cytotoxicity toward MDR cells [5]: does not demonstrate cytotoxicity
cytotoxicity toward normal human cells [6]: does not demonstrate cytotoxicity
intracellular doxorubicin accumulation in K562/adr [7]: restored intracellular doxorubicin accumulation
intracellular daunorubicin accumulation in K562/adr [8]: restored intracellular daunorubicin accumulation
intracellular Rh-123 accumulation in KBV200 [9]: restored intracellular Rh-123 accumulation
intracellular distribution of daunorubicin and Rh-123 in MDR cancer cells [10]: partially restored
[3H]Azidopine binding with P-glycoprotein [11]: inhibited
MST [12]: 21.2 days
T/C [12]: 101.9%

COc1cccc2c1C(=O)c1c(O)c3c(c(O)c1C2=O)C[C@@](O)(C(=O)CO)C[C@@H]3O[C@H]1C[C@H](N)[C@H](O)[C@H](C)O1 [Doxorubicin, doxorubicin]
IC50 ([1]; Homo sapiens, anticancer drug toward K562/vcr in the absence of Schisandrin B, 48 h, read-out: IC50 Control): 4.89 ± 0.21 µg/mL
RF (Reversal Folds) ([1]; IC50 in the absence of Schisandrin B divided by IC50 in the presence of Schisandrin B (10 μg/ml)): 25.7
IC50 Schisandrin B ([1]; anticancer drug toward K562/vcr in the presence of Schisandrin B (10 μg/ml), 48 h): 0.19 ± 0.01 µg/mL
IC50 ([13]; Homo sapiens, anticancer drug alone, 72 h, read-out: IC50 Control): 1.42 ± 0.246 µg/mL
RF (Schisandrin B) ([13]; IC50 in the absence divided by IC50 in the presence of Schisandrin B (10 μg/ml)): 20.57
RF (verapamil) ([13]; IC50 in the absence divided by IC50 in the presence of verapamil (6 μg/ml)): 10.76
IC50 Schisandrin B ([13]; anticancer drug in the presence of Schisandrin B (10 μg/ml)): 0.0691 ± 0.0137 µg/mL
IC50 verapamil ([13]; anticancer drug in the presence of verapamil (6 μg/ml)): 0.1324 ± 0.0086 µg/mL
IC50 ([2]; Homo sapiens, anticancer drug alone, KBV200, 72 h, read-out: IC50 Control): 0.327 ± 0.213 µg/mL
RF (verapamil) ([2]; IC50 in the absence / IC50 in the presence of verapamil (6 μg/ml), KBV200): 10.11
IC50 Schisandrin B ([2]; anticancer drug in the presence of Schisandrin B (10 μg/ml), KBV200): 0.0691 ± 0.0137 µg/mL
IC50 verapamil ([2]; anticancer drug in the presence of verapamil (6 μg/ml), KBV200): 0.0324 ± 0.0086 µg/mL
% apoptosis [14]: >90%
% apoptosis ([15]; A1: doxorubicin 1 μg/ml): >90%
% apoptosis ([15]; A5: doxorubicin 5 μg/ml): >90%
Cell cycle distribution G0/G1 [16, 18]: 44.76%
Cell cycle distribution G2/M [16, 18]: 10.14%
Cell cycle distribution S [16, 18]: 45.09%
hypodiploid % [16, 18]: 1.21%
Cell cycle distribution G0/G1 [16, 19]: 48.03%
Cell cycle distribution G2/M [16, 19]: 9.60%
Cell cycle distribution S [16, 19]: 42.37%
hypodiploid % [16, 19]: 7.51%
Cell cycle distribution G0/G1 [16, 20]: 54.04%
Cell cycle distribution G2/M [16, 20]: 5.66%
Cell cycle distribution S [16, 20]: 40.30%
hypodiploid % [16, 20]: 24.10%
Cell cycle distribution G0/G1 [16, 21]: 58.94%
Cell cycle distribution G2/M [16, 21]: 1.70%
Cell cycle distribution S [16, 21]: 39.36%
hypodiploid % [16, 21]: 70.31%
DNA fragmentation ([17]; KBV200, doxorubicin combined with Schisandrin B (10 μg/ml)): demonstrated DNA fragmentation
DNA fragmentation ([17]; KBV200, doxorubicin in the absence of Schisandrin B): did not show the similar DNA fragmentation
tumor sizes versus control groups ([12]; Balb/c nu/nu mice, KBV200 s.c., doxorubicin 5 mg/kg via tail vein, Schisandrin B via gastric intubation, days 11, 14, 18, 21, 25, FIG. 15): not significantly different
MST [12]: not significantly prolonged
T/C [12]: 111.1%

Source: US20050119337A1, “Methods of application of Schisandrin B in the preparation of anticancer medications” (priority 2003, published 2005)
